Reference: patent US20230295571A1, “COMPOSITIONS AND METHODS FOR STEM CELL CHONDROGENESIS” (Washington University, priority 2020, published 2023)

Assays:
hMSC pellets = experiment: Chondrogenesis of hMSC pellets with WNT inhibition (Saf-O, GAG/DNA); format: cell-based, human
Description: hMSCs and culture. Discarded and deidentified waste tissue from the iliac crests of adult bone marrow transplant donors was collected in accordance with the institutional review board of Washington University in Saint Louis. Human bone marrow-derived MSCs (hMSCs) were isolated by their physical adherence to plastic culture vessels. Cells were expanded and maintained in an expansion medium consisting of DMEM-low glucose (Thermo Fisher Scientific, #11885092), 1 penicillin/streptomycin (P/S, Thermo Fisher Scientific, #15140-122), 10% lot-selected FBS (Atlanta Biologicals, #S11550), and 1 ng ml^−1 basic fibroblast growth factor (FGF) (R&D Systems, #233-FB). Three individual donors were used as biologic replicates in subsequent experiments.
WNT-C59 and ML329 treatment for WNT and MITF inhibition. For WNT-C59 treatment for WNT inhibition during chondrogenesis, pellets were treated with either 10 ng ml^−1 TGF-β3 (control group) or a combination of 10 ng ml^−1 TGF-β3 and 1 μM WNT-C59 in a chondrogenic medium from d0 to d42 as appropriate. […]
Biochemical analysis of cartilaginous matrix production. […] GAG content, as calculated based on the standard curve, was normalized to double-stranded DNA content to obtain the GAG/DNA ratio.

[1] = tested on: hiPSC chondrogenic pellets; experiment: scRNA-seq of hiPSC chondrogenic pellets with WNT inhibition; format: cell-based, human
Protocol: On the day of collection for bulk RNA-seq experiments, 3-4 pellets per experimental group were pooled together and washed once with phosphate-buffered saline (PBS), snap-frozen in 300 μl of Buffer RL (Norgen Biotek), and stored at −80° C. until processing for RNA extraction. At harvesting time points for scRNA-seq experiments, 6-8 pellets per experimental group were pooled and digested with 0.04% Type II collagenase solution in DMEM/F12 for 1 h. Cells were washed once with PBS, resuspended in standard freezing medium, and stored in liquid nitrogen until needed.
WNT-C59 and ML329 treatment for WNT and MITF inhibition. For WNT-C59 treatment for WNT inhibition during chondrogenesis, pellets were treated with either 10 ng ml^−1 TGF-β3 (control group) or a combination of 10 ng ml^−1 TGF-β3 and 1 μM WNT-C59 in a chondrogenic medium from d0 to d42 as appropriate. For WNT-C59 and ML329 treatment (ML, Axon Medchem, HY-101464) for WNT and MITF inhibition during chondrogenesis, pellets were treated with either 10 ng ml^−1 TGF-β3 (control group), a combination of 10 ng ml^−1 TGF-β3 and 1 μM ML, a combination of 10 ng ml^−1 TGF-β3 and 1 μM WNT-C59, or a combination of 10 ng ml^−1 TGF-β3, 1 μM ML and 1 μM WNT-C59 in chondrogenic medium from d0 to d42 as appropriate.
10× chromium platform scRNA-seq. Cells were thawed at 37° C. and resuspended in PBS with 0.04% bovine serum albumin at a concentration of 2000 cells per μl. Cell suspensions were submitted to the GTAC sequencing core at Washington University in St. Louis for library preparation and sequencing. In brief, 10,000 cells per sample were loaded on a Chromium Controller (10× Genomics) for single capture. Libraries were prepared using Single Cell 3′ Library & Gel Bead Kit v2 (#120237 10× Genomics) following the manufacture's instruction. A single cell emulsion (Gel Bead-In-EMulsions, GEMs) is created by making barcoded cDNA unique to each individual emulsion. A recovery agent was added to break GEM and cDNA was then amplified. A library is produced via end repair, dA-tailing, adapter ligation, post-ligation cleanup with SPRIselect, and sample index PCR. The quality and concentration of the amplified cDNA were evaluated by Bioanalyzer (Agilent 2100) on a High Sensitivity DNA chip (Agilent, #5065-4401). The only cDNA with an average library size of 260-620 bp were used for sequencing. Sequencing was performed by IIlumina HiSeq2500 with the following read length: 26 bp for Read1, 8 bp for i7 Index, and 98 bp for Read2. We generally acquired ˜180 million reads per library (sample). A species mixing experiment (mouse adipose stem cells and human iPSCs, 1:1 mixture) was also performed prior to running on the actual sample to ensure good quality of single-cell capture (i.e., cell doublet rate<5%).
Preprocessing of scRNA-seq data. Paired-end sequencing reads were processed by Cell Ranger (10× Genomics software, version 2.0.0). Reads were aligned to the GRCh38 (version 90) for genome annotation, demultiplexing, barcode filtering, and gene quantification. Cell Ranger also removes any barcode that has less than 10% of the 99th percentile of total unique molecular identifiers (UMI) counts per barcode as these barcodes are considered to be associated with empty droplets. After this quality control, gene barcode matrices for each sample were generated by counting the number of UMIs for a given gene (as a row) in the individual cell (as a column). For each sample, ˜1300-2500 cells were captured.
Unsupervised clustering analysis and annotation. To assess the difference in the composition of cell populations, global unsupervised clustering analysis was performed for our scRNA-seq datasets. First, gene barcode matrices were input into the Seurat R package (version 2.4). Then, the low-quality cells with less than 200 or more than 7000 detected genes or if their mitochondrial gene content was more than 5% were removed. […]

[2] = trajectory vs TGF-β3-treated pellets

SMILES: Cc1cc(-c2ccc(CC(=O)Nc3ccc(-c4cccnc4)cc3)cc2)ccn1 [WNT-C59]
- GAG/DNA ratio of hMSC pellets (hMSC pellets; donor 1 and donor 3, vs TGF-β3 alone): significantly increased
- chondrogenesis of hMSC pellets (hMSC pellets; hMSCs from 3 donors, WNT-C59 during pellet culture): increased
- neural cells and melanocytes in pellets ([1]; WNT-C59-treated pellets d7-d42): significantly decreased
- percentage of BMP4-expressing cells ([1]; d14, all clusters except ISG15/IFI6/MX1+ chondrocytes): decreased percentage
- percentage of GDF5 and BMPR1B expressing cells ([1]; d14, all clusters vs TGF-β3-treated): remarkably increased percentage
- percentage of cells expressing BMPR2 ([1]; d14, several chondrocyte subpopulations): decreased
- expression of most WNTs ([1]; d14 and d28 pellets, particularly proliferative cells): decreased expression
- FRZB expression in chondrocyte population ([1]; d14 pellets): upregulated
- ID2 (neurogenic marker) in proliferative cells ([1]; d14 pellets): decreased
- PRG4 in mesenchymal cells ([1]; d14 pellets): increased
- mesenchyme and chondrocytes content ([1]; d14 pellets vs TGF-β3 only): more
- IFI6 and ISG15 (mature-hypertrophic chondrocyte markers) ([1]; d28 pellets): downregulated
- expression of ACAN and COMP ([1]; d28 pellets vs standard-treated): increased
- chondrogenic markers [1, 2]: enriched expression
- neurogenic markers [1, 2]: little, if any
- ACAN expression in pseudotime ([1]; vs TGF-β3 alone): earlier induction
- COL2A1 and SOX9 expression in pseudotime ([1]; vs TGF-β3 alone): higher levels
- SOX2 expression in pseudotime ([1]; vs TGF-β3 alone): earlier decrease
